Data on seven compounds can be found in patent US20080027006A1 (priority 2004, published 2008).

The test deals with HR-N and HR-C regions of the SARS-CoV S glycoprotein (Severe acute respiratory syndrome coronavirus, UniProt P59594). It is filed as binding, SARS coronavirus (Urbani strain).

On to `CC[C@H](C)[C@H](NC(=O)[C@H](CCC(N)=O)NC(=O)[C@H](CO)NC(=O)[C@@H](NC(=O)[C@H](C)NC(=O)[C@H](CCCCN)NC(=O)[C@H](CC(N)=O)NC(=O)[C@H](Cc1ccccc1)NC(=O)[C@H](CCC(N)=O)NC(=O)[C@H](CC(N)=O)NC(=O)[C@H](C)NC(=O)[C@@H](NC(=O)[C@H](CCC(N)=O)NC(=O)[C@H](CCCCN)NC(=O)[C@H](CCC(N)=O)NC(=O)[C@H](CC(N)=O)NC(=O)[C@H](CCC(=O)O)NC(=O)[C@H](Cc1ccc(O)cc1)NC(=O)[C@H](CC(C)C)NC(=O)[C@@H](NC(=O)[C@H](CC(N)=O)NC(=O)[C@H](CCC(N)=O)NC(=O)[C@@H](NC(=O)[C@@H](NC(=O)CNC(=O)[C@@H](NC(=O)CNC(=O)[C@H](CC(N)=O)NC(=O)[C@H](Cc1ccccc1)NC(=O)[C@H](CCCNC(=N)N)NC(=O)[C@H](Cc1ccc(O)cc1)NC(=O)[C@H](C)NC(=O)[C@H](CCSC)NC(=O)[C@H](CCC(N)=O)NC(=O)[C@H](CCSC)NC(C)=O)[C@@H](C)CC)C(C)C)[C@@H](C)O)C(C)C)[C@@H](C)CC)[C@@H](C)CC)C(N)=O` [HR-N5], for which the “interaction with HR-C1 (in words)” value is reported as “no detectable interaction”. The same measure, in the same setting: the value for `CC[C@H](C)[C@H](NC(=O)CNC(=O)[C@H](CC(N)=O)NC(=O)[C@H](Cc1ccccc1)NC(C)=O)C(=O)NCC(=O)N[C@H](C(=O)N[C@H](C(=O)N[C@@H](CCC(N)=O)C(=O)N[C@@H](CC(N)=O)C(=O)N[C@H](C(=O)N[C@@H](CC(C)C)C(=O)N[C@@H](Cc1ccc(O)cc1)C(=O)N[C@@H](CCC(=O)O)C(=O)N[C@@H](CC(N)=O)C(=O)N[C@@H](CCC(N)=O)C(=O)N[C@@H](CCCCN)C(=O)N[C@@H](CCC(N)=O)C(=O)N[C@H](C(=O)N[C@@H](C)C(=O)N[C@@H](CC(N)=O)C(=O)N[C@@H](CCC(N)=O)C(=O)N[C@@H](Cc1ccccc1)C(=O)N[C@@H](CC(N)=O)C(=O)N[C@@H](CCCCN)C(=O)N[C@@H](C)C(=O)N[C@H](C(=O)N[C@@H](CO)C(=O)N[C@@H](CCC(N)=O)C(=O)N[C@H](C(=O)N[C@@H](CCC(N)=O)C(=O)N[C@@H](CCC(=O)O)C(=O)N[C@@H](CO)C(=O)N[C@@H](CC(C)C)C(=O)N[C@H](C(=O)N[C@H](C(N)=O)[C@@H](C)O)[C@@H](C)O)[C@@H](C)CC)[C@@H](C)CC)[C@@H](C)CC)C(C)C)[C@@H](C)O)C(C)C` [HR-N6] was “No interactions”. Same read-out and setting: the value for `CC[C@H](C)[C@H](NC(=O)[C@H](C)NC(=O)[C@H](CCCCN)NC(=O)[C@H](CC(N)=O)NC(=O)[C@H](Cc1ccccc1)NC(=O)[C@H](CCC(N)=O)NC(=O)[C@H](CC(N)=O)NC(=O)[C@H](C)NC(=O)[C@@H](NC(=O)[C@H](CCC(N)=O)NC(=O)[C@H](CCCCN)NC(=O)[C@H](CCC(N)=O)NC(=O)[C@H](CC(N)=O)NC(=O)[C@H](CCC(=O)O)NC(=O)[C@H](Cc1ccc(O)cc1)NC(=O)[C@H](CC(C)C)NC(=O)[C@@H](NC(=O)[C@H](CC(N)=O)NC(=O)[C@H](CCC(N)=O)NC(C)=O)C(C)C)[C@@H](C)CC)C(=O)N[C@@H](CO)C(=O)N[C@@H](CCC(N)=O)C(=O)N[C@H](C(=O)N[C@@H](CCC(N)=O)C(=O)N[C@@H](CCC(=O)O)C(=O)N[C@@H](CO)C(=O)N[C@@H](CC(C)C)C(=O)N[C@H](C(=O)N[C@H](C(=O)N[C@H](C(=O)N[C@@H](CO)C(=O)N[C@H](C(=O)N[C@@H](C)C(=O)N[C@@H](CC(C)C)C(=O)NCC(=O)N[C@@H](CCCCN)C(N)=O)[C@@H](C)O)[C@@H](C)O)[C@@H](C)O)[C@@H](C)O)[C@@H](C)CC` [HR-N7] was “No interactions”. Same read-out and setting: in the case of `CC[C@H](C)[C@H](NC(=O)[C@H](C)NC(=O)[C@H](CCCCN)NC(=O)[C@H](CC(N)=O)NC(=O)[C@H](Cc1ccccc1)NC(=O)[C@H](CCC(N)=O)NC(=O)[C@H](CC(N)=O)NC(=O)[C@H](C)NC(=O)[C@@H](NC(=O)[C@H](CCC(N)=O)NC(=O)[C@H](CCCCN)NC(=O)[C@H](CCC(N)=O)NC(C)=O)[C@@H](C)CC)C(=O)N[C@@H](CO)C(=O)N[C@@H](CCC(N)=O)C(=O)N[C@H](C(=O)N[C@@H](CCC(N)=O)C(=O)N[C@@H](CCC(=O)O)C(=O)N[C@@H](CO)C(=O)N[C@@H](CC(C)C)C(=O)N[C@H](C(=O)N[C@H](C(=O)N[C@H](C(=O)N[C@@H](CO)C(=O)N[C@H](C(=O)N[C@@H](C)C(=O)N[C@@H](CC(C)C)C(=O)NCC(=O)N[C@@H](CCCCN)C(=O)N[C@@H](CC(C)C)C(=O)N[C@@H](CCC(N)=O)C(=O)N[C@@H](CC(=O)O)C(=O)N[C@H](C(=O)N[C@H](C(=O)N[C@@H](CC(N)=O)C(=O)N[C@@H](CCC(N)=O)C(N)=O)C(C)C)C(C)C)[C@@H](C)O)[C@@H](C)O)[C@@H](C)O)[C@@H](C)O)[C@@H](C)CC` [HR-N8] it was “No interactions”. For the compound `CC[C@H](C)[C@H](NC(=O)[C@H](C)NC(=O)[C@H](CCCCN)NC(=O)[C@H](CC(N)=O)NC(=O)[C@H](Cc1ccccc1)NC(C)=O)C(=O)N[C@@H](CO)C(=O)N[C@@H](CCC(N)=O)C(=O)N[C@H](C(=O)N[C@@H](CCC(N)=O)C(=O)N[C@@H](CCC(=O)O)C(=O)N[C@@H](CO)C(=O)N[C@@H](CC(C)C)C(=O)N[C@H](C(=O)N[C@H](C(=O)N[C@H](C(=O)N[C@@H](CO)C(=O)N[C@H](C(=O)N[C@@H](C)C(=O)N[C@@H](CC(C)C)C(=O)NCC(=O)N[C@@H](CCCCN)C(=O)N[C@@H](CC(C)C)C(=O)N[C@@H](CCC(N)=O)C(=O)N[C@@H](CC(=O)O)C(=O)N[C@H](C(=O)N[C@H](C(=O)N[C@@H](CC(N)=O)C(=O)N[C@@H](CCC(N)=O)C(=O)N[C@@H](CC(N)=O)C(=O)N[C@@H](C)C(=O)N[C@@H](CCC(N)=O)C(=O)N[C@@H](C)C(=O)N[C@@H](CC(C)C)C(=O)N[C@@H](CC(N)=O)C(=O)N[C@H](C(N)=O)[C@@H](C)O)C(C)C)C(C)C)[C@@H](C)O)[C@@H](C)O)[C@@H](C)O)[C@@H](C)O)[C@@H](C)CC` [HR-N9], the “induction of ellipticity at 222 nm with HR-C1” value was 3,500 degrees. On the same count and under the same terms, in the case of `CC[C@H](C)[C@H](NC(C)=O)C(=O)N[C@@H](CCC(N)=O)C(=O)N[C@@H](CCC(=O)O)C(=O)N[C@@H](CO)C(=O)N[C@@H](CC(C)C)C(=O)N[C@H](C(=O)N[C@H](C(=O)N[C@H](C(=O)N[C@@H](CO)C(=O)N[C@H](C(=O)N[C@@H](C)C(=O)N[C@@H](CC(C)C)C(=O)NCC(=O)N[C@@H](CCCCN)C(=O)N[C@@H](CC(C)C)C(=O)N[C@@H](CCC(N)=O)C(=O)N[C@@H](CC(=O)O)C(=O)N[C@H](C(=O)N[C@H](C(=O)N[C@@H](CC(N)=O)C(=O)N[C@@H](CCC(N)=O)C(=O)N[C@@H](CC(N)=O)C(=O)N[C@@H](C)C(=O)N[C@@H](CCC(N)=O)C(=O)N[C@@H](C)C(=O)N[C@@H](CC(C)C)C(=O)N[C@@H](CC(N)=O)C(=O)N[C@H](C(=O)N[C@@H](CC(C)C)C(=O)N[C@H](C(=O)N[C@@H](CCCCN)C(=O)N[C@@H](CCC(N)=O)C(=O)N[C@@H](CC(C)C)C(=O)N[C@@H](CO)C(=O)N[C@@H](CO)C(N)=O)C(C)C)[C@@H](C)O)C(C)C)C(C)C)[C@@H](C)O)[C@@H](C)O)[C@@H](C)O)[C@@H](C)O` [HR-N10] it was 9,600 degrees.

With `CC[C@H](C)[C@H](NC(=O)[C@H](C)NC(=O)CNC(=O)[C@H](Cc1ccccc1)NC(=O)[C@H](CC(N)=O)NC(=O)[C@H](CO)NC(=O)[C@H](CO)NC(=O)[C@H](CC(C)C)NC(=O)[C@H](CCC(N)=O)NC(=O)[C@H](CCCCN)NC(=O)[C@@H](NC(=O)[C@H](CC(C)C)NC(=O)[C@@H](NC(=O)[C@H](CC(N)=O)NC(=O)[C@H](CC(C)C)NC(=O)[C@H](C)NC(=O)[C@H](CCC(N)=O)NC(=O)[C@H](C)NC(=O)[C@H](CC(N)=O)NC(=O)[C@H](CCC(N)=O)NC(=O)[C@H](CC(N)=O)NC(=O)[C@@H](NC(=O)[C@@H](NC(=O)[C@H](CC(=O)O)NC(=O)[C@H](CCC(N)=O)NC(=O)[C@H](CC(C)C)NC(=O)[C@H](CCCCN)NC(=O)CNC(=O)[C@H](CC(C)C)NC(=O)[C@H](C)NC(=O)[C@@H](NC(=O)[C@H](CO)NC(=O)[C@@H](NC(C)=O)[C@@H](C)O)[C@@H](C)O)C(C)C)C(C)C)[C@@H](C)O)C(C)C)C(=O)N[C@@H](CO)C(=O)N[C@@H](CO)C(N)=O` [HR-N11], the “interaction with HR-C1 (in words)” value is “absence of any observable interaction”.
